Earlier results, collected in patent publication US6419959B1, “Galenic composition containing opioid antagonists” (Klinge Pharma GmbH, priority 1996, dated 2002).
Like-named read-outs stand apart in the source and are kept apart here.

Tests used:
[1] = metabolites of naloxone present in the blood
[2] = test system: patients with opioid-induced constipation; settings: oral, maximally administered dose 12 mg
patients = settings: oral
[3] = test system: patients with opioid-induced constipation; settings: oral

## CN1CC[C@]23c4c5ccc(O)c4O[C@H]2[C@@H](O)C=C[C@H]3[C@H]1C5 [morphine]
Patients given morphine
  patients in whom constipation arises during treatment: approximately 85%

## C=CCN1CC[C@]23c4c5ccc(O[C@@H]6O[C@H](C(=O)O)[C@@H](O)[C@H](O)[C@H]6O)c4O[C@H]2C(=O)CC[C@@]3(O)[C@H]1C5 [naloxone-3-glucuronide]
[1]
  effectiveness of metabolite: not effective or only weakly effective

## C=CCN1CC[C@]23c4c5ccc(O[C@@H]6O[C@H](C(=O)O)[C@@H](O)[C@H](O)[C@H]6O)c4O[C@H]2[C@H](O)CC[C@@]3(O)[C@H]1C5 [β-naloxol-3-glucuronide]
[1]
  effectiveness of metabolite: not effective or only weakly effective

## C=CCN1CC[C@]23c4c5ccc(O)c4O[C@H]2C(=O)CC[C@@]3(O)[C@H]1C5 [naloxone]
[2]
  effect on the gastrointestinal motility: not determinable in any of the treated patients
Healthy probands; intravenously applied, 40 μg/kg/hr in 3 hr
  neutralisation of the constipating effect of loperamide: could neutralize the constipating effect of loperamide
Healthy probands; oral administration of 16 or 32 mg
  neutralisation of the constipating effect of loperamide: could neutralize the constipating effect of loperamide
patients; up to 10% naloxone dose with respect to the opioid dose
  effect on constipation: No effect was determinable
patients; very high dose range 20% to 40% of the opioid dose
  effect on constipation: neutralization of constipation
[3]; doses of up to 16 mg, three patients
  response to the treatment (neutralisation of constipation): two of the three patients responded
[3]; increase in dose of up to 24 mg within 3 hours
  neutralisation of constipation in the other patient (non-responder): constipation could not be neutralized
[3]; plasma level determinations
  dose-dependent maximal naloxone plasma concentrations: up to 7.9 ng/ml

## C=CCN1CC[C@]23c4c5ccc(O)c4O[C@H]2[C@H](O)CC[C@@]3(O)[C@H]1C5 [β-naloxol]
[1]
  effectiveness of metabolite: not effective or only weakly effective
